{
  "source": "patent US9062051B2",
  "about": "“Compounds and pharmaceutical compositions thereof for the treatment of proliferative disorders” (GALAPAGOS NV, priority 2014, dated 2015)",
  "key": {"EphA4": {"biological_target": "T1, EphA4 (UniProt Ref: P54764) (Homo sapiens, UniProt P54764)", "T1 construct": "purchased Reaction Biology", "T1 sequence (P54764 20-986)": "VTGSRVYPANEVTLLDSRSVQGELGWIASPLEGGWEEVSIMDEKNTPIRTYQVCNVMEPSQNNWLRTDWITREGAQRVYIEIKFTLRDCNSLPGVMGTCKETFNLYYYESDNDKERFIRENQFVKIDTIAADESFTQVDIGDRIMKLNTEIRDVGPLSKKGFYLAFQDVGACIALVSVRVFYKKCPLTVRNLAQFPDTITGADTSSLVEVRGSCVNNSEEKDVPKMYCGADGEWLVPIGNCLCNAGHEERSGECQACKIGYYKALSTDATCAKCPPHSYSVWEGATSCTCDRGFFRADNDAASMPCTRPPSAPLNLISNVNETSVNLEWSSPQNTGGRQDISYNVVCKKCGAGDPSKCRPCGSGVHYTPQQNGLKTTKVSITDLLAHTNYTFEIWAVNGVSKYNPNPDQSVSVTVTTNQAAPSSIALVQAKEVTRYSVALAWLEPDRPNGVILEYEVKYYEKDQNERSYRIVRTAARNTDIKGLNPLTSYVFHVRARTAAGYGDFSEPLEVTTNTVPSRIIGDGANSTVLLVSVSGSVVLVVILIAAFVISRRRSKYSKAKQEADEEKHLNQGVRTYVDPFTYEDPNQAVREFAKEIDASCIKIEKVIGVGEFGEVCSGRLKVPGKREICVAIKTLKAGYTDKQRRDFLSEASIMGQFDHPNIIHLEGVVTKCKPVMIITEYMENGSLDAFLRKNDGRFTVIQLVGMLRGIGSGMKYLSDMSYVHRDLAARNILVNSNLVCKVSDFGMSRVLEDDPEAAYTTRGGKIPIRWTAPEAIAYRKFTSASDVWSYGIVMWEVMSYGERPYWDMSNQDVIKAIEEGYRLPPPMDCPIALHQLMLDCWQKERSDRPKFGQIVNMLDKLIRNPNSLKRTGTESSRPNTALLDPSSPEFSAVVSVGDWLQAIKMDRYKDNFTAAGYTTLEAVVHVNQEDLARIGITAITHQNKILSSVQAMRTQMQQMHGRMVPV", "assay": "EphA4 assay (Reaction Biology HotSpot radioactive kinase assay)", "type": "biochemical", "details": "EphA4 potency; ATP 10 μM", "procedure": "(§1) Inhibition of EphA4 (UniProt Ref: P54764) by a test compound is determined by a commercially available Reaction Biology proprietary nanoliter radioactive HotSpot^SM assay (Reaction Biology, One great valley parkway, Suite 2, Malvern Pa., 19355, USA). The principle of the assay consists of the measurement of incorporated ^33P into poly[Glu:Tyr] (4:1) (0.2 mg/mL) when the substrate is phosphorylated by the enzyme using [^33P]-γ-ATP and ATP (10 μM).\n(§2) To determine the IC50, a serial dilution of compound is tested starting from 10 or 3 μM (highest dilution) with a 1/3 dilution."}, "EphA2": {"biological_target": "T2, EphA2 (UniProt Ref: P29317) (Homo sapiens, UniProt P29317)", "T2 construct": "purchased Reaction Biology", "T2 sequence (P29317 24-976)": "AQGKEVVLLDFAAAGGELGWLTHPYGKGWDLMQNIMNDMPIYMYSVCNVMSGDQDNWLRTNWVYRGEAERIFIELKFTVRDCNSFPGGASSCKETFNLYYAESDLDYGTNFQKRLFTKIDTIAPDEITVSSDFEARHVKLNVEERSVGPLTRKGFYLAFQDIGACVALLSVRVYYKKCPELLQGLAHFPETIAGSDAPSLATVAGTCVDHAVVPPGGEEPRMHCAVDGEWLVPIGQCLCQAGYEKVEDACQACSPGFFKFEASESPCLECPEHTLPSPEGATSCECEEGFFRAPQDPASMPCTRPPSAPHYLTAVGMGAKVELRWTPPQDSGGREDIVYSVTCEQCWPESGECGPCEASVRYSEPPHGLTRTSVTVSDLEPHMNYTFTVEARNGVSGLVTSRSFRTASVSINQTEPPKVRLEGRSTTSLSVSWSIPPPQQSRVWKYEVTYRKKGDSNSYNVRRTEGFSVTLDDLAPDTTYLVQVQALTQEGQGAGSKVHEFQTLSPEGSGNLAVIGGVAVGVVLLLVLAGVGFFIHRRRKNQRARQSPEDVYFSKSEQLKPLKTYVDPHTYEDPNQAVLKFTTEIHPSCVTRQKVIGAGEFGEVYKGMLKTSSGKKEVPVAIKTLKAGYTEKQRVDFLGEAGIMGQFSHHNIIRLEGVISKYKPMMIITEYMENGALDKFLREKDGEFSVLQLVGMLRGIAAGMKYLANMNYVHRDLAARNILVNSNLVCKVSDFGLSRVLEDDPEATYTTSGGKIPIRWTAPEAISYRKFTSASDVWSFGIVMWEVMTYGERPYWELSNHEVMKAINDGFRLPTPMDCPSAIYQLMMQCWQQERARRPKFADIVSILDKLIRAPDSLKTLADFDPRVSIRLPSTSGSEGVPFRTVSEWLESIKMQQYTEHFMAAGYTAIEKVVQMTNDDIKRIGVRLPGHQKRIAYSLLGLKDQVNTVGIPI", "assay": "EphA2 assay (Reaction Biology HotSpot radioactive kinase assay)", "type": "biochemical", "details": "ATP 10 μM; read-out: EphA2 potency IC50", "outline": "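Radiometric HotSpot assay measuring ^33P incorporation from [^33P]-γ-ATP into poly[Glu:Tyr] (4:1) (0.2 mg/mL) with 10 μM ATP. IC50 from serial 1/3 dilutions starting at 10 or 3 μM.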"}, "[1]": {"assay": "Pharmacokinetics in mice (exposure, AUC)", "type": "in vivo", "details": "male, CD1, plasma; mouse, 30 mg/kg, po", "procedure": "This study was performed with 42 naïve male CD1 mice (18-20 g, 4-5 weeks old). Mice are obtained from Janvier, Le Genest St Isle, France.\nA controlled environment was maintained in the room with optimal conditions of approximately 15 air changes per hour, a temperature of 22±2 C, a relative humidity of 30-70% and a 12 hour light/12 hour dark cycle (nightlight during the night period).\nPelleted diet for rodents (UAR A04C-10) was used and was provided ad libitum. Before p.o. dosing, the animals are deprived of food for at least 12 hours before compound administration and 4 hours after administration. All animals had free access to tap water.\n[…] The i.v. bolus administration is given with a dose volume of 5 mL/kg and the oral administration is given with a dose volume of 10 mL/kg. Actual dose volumes are based on the mean of 10 body weights.\nThe vehicle used to formulate compounds for oral administration is methylcellulose in water (0.5% in water)\nFrom all animals approximately 500 μL blood samples are collected by intra-cardiac puncture under gaseous anesthesia and placed into tubes containing Li-heparin as anticoagulant. Blood samples are collected at various time points (i.v.: 0.05, 0.25, 0.5, 1, 3, 5 and 8 hours after dosing; p.o.: 0.25, 0.5, 1, 3, 5, 8 and 24 hours after dosing). Each mouse is sampled once and euthanized.\nBlood is kept on ice. Within 1 hour after sampling, blood is centrifuged at 5,000 rpm for 10 min at 4° C. Immediately after centrifugation, the resulting plasma samples are collected into polypropylene tubes and are kept frozen at −20° C. pending bioanalysis.\nPlasma samples are assayed by LC-MS/MS. Plasma proteins are precipitated with an excess of methanol containing the internal standard and the corresponding supernatant is injected on a C18 column. Analytes are eluted out the HPLC system by increasing the percentage of the organic mobile phase. An API4000 mass spectrometer (AB Sciex™) is used for the detection and quantification.\nPharmacokinetic parameters are calculated by non-compartmental analysis using WinNonlin® software (Pharsight, version 5.2)."}, "EphB4": {"biological_target": "T3, EphB4 (UniProt Ref: Q541P7) (Homo sapiens, UniProt P54760)", "T3 construct": "purchased Reaction Biology", "T3 sequence (P54760 16-987)": "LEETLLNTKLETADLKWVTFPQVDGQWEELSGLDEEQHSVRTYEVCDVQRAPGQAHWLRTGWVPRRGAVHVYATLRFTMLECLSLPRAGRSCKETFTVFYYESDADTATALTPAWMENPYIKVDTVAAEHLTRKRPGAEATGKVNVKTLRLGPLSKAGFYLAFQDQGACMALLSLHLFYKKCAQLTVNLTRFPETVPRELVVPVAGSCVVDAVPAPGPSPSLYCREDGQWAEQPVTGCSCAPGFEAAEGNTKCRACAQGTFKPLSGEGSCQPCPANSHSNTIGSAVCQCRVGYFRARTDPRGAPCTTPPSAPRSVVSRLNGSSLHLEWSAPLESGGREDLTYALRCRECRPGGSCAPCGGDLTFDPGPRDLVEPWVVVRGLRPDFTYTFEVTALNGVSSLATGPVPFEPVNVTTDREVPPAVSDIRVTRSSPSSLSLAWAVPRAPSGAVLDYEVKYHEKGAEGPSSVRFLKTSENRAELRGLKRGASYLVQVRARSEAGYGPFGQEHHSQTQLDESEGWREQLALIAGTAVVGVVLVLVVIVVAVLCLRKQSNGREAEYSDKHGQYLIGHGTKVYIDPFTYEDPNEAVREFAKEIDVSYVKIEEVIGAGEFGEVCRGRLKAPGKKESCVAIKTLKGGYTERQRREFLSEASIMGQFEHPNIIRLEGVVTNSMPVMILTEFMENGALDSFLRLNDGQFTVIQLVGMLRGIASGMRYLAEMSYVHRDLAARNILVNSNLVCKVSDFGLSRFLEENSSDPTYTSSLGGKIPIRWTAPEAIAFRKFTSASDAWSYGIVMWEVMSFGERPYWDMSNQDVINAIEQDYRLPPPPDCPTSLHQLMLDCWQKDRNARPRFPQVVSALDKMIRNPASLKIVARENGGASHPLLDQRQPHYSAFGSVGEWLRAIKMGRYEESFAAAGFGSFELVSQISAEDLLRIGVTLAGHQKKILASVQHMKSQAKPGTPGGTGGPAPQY", "assay": "EphB4 assay (Reaction Biology HotSpot radioactive kinase assay)", "type": "biochemical", "details": "ATP 10 μM; read-out: EphB4 potency IC50", "procedure": "as §1, with “EphB4” for “EphA4”, “Q541P7)” for “P54764)”\nas §2"}},
  "data": [
    {"molecule": "COc1cc(OC)cc(C(=O)Nc2ccc(C)c(-c3ccc4c([C@H](C)O)n[nH]c4n3)c2)c1", "note": "[Compound 47, N-{3-[3-((S)-1-Hydroxy-ethyl)-1H-pyrazolo[3,4-b]pyridin-6-yl]-4-methyl-phenyl}-3,5-dimethoxy-benzamide]", "values": [
      {"measurement": "IC50", "setting": "EphA4", "result": "50 to 100", "unit": "nM"},
      {"measurement": "IC50", "setting": "EphA2", "result": "0.01 to 25", "unit": "nM"},
      {"measurement": "AUC", "setting": "[1]", "result": 39000, "unit": "ng·h/mL"},
      {"measurement": "IC50", "setting": "EphB4", "result": "0.01 to 25", "unit": "nM"}
    ]}
  ]
}
